T1: DCIR-Fc (Mus musculus, UniProt Q9QZ15)
T1 construct: covering the extracellular domain (EC) from 70 to 238 at the amino acid level; made in house; host or cells: HEK293T cells
T1 sequence (Q9QZ15 70-238): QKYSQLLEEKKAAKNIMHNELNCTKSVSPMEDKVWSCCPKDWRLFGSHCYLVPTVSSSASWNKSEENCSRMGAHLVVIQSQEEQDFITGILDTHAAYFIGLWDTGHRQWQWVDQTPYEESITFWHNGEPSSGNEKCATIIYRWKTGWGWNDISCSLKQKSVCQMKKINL


Legend:
DCIR-Fc [1] = biological target: T1, DCIR-Fc; experiment: Glycan microarray with evanescent-field fluorescence-assisted detection: binding of DCIR-Fc to glycan probes; design: species or system murine; conditions: glycan microarray, DCIR-Fc
Source text: (§1) Murine DCIR cDNA, covering the extracellular domain (EC) from 70 to 238 at the amino acid level, was subcloned into pFUSE-hIgG2-Fc2 vector (Invitrogen) at Bgl II site. cDNA coding the extracellular domain was generated with a primer set; sense 5′-[…]-3′ (sequence No. 11) and anti-sense 5′-[…]-3′ (sequence No. 12). Site-directed mutations of the CRD domain, in which glutamic acid and serine were replaced to alanine, were established by KOD-Plus-Mutagenesis Kit (TOYOBO). The following primer set was used for the mutagenesis: E197A sense 5′-[…]-3′(sequence No. 13), anti-sense 5′-[…]-3′(sequence No. 14); S199A sense 5′-[…]-3′(sequence No. 15), anti-sense 5′-[…]-3′ (sequence No. 16); E197A/S199A sense 5′-[…]-3′ (sequence No. 17), anti-sense 5′-[…]-3′(sequence No. 18).
(§2) The plasmids were transferred into HEK293T cells by Lipofectamine LTX (Invitrogen), and the cells were incubated in Opti-MEM (Invitrogen) for 15 days and the medium was changed every 3 days. The Fc-chimeric proteins were purified from collected supernatant by affinity chromatography on Protein A-Sepharose (GE Healthcare UK)
(§3) The glycan-protein interaction was detected in a glycan microarray with an evanescent-field fluorescence-assisted detection system. Briefly, glycan probes, including glycoproteins and glycoside-polyacrylamide (PAA), were immobilized on microarray-grade epoxy-activated glass slides (Schott AG) in triplicate spots using a noncontact microarray printing robot, MicroSys 4000 (Genomic Solutions). The glass slides were incubated at 25° C. for 3 hours and washed with a reaction buffer consisting of 25 mM Tris HCl (pH 7.4) containing 0.8% NaCl, 1% (v/v) Triton-X, 1 mM MnCl2, and 1 mM CaCl2 to remove […], followed by blocking in TBS (25 mM Tris-HCl (pH 7.4) with 0.8% NaCl and 1% BSA) at 20° C. for 1 hour. A protein complex of DCIR-Fc, mutant DCIR-Fc, or Fc with Cy3-labelled anti-human Fc antibodies was formed in a reaction buffer at RT by 20 minutes kept in the dark.
(§4) The protein complex was applied to a glass slide at 100 μl per chamber, and was incubated at 20° C. for 3 hours. Without washing, the binding was detected with an evanescent-field activated fluorescence scanner, SC-Profiler (GP Bioscience), and the data was analyzed by the Array Pro analyzer Ver. 4.5 (Media Cybernetics, Inc.) Subtracted raw intensity from background intensity is net intensity, which is presented as the average±s.d. of triplicate spots.

DCIR-Fc [2] = experiment: as above; design: species or system murine; conditions: for binding of mutant DCIR-Fc (CRD mutants) to the glycan: glycan microarray; for Ca2+ and CRD dependency of DCIR-Fc binding: with or without EDTA, CRD mutants
Source text: as §1, §2, §3, §4

wild-type BMMs [3] = experiment: Osteoclast formation by TRAP staining, wild-type BMMs with M-CSF and RANKL; type: cell-based, mouse
Procedure: To form M-CSF-dependent bone marrow-derived macrophages, BM cells were isolated by flushing the bone marrow cavity of femurs with α-minimal essential medium (α-MEM) (Gibco, trade name, Life Technologies), supplemented with penicillin (100 units/ml), streptomycin (100 μg/ml) and 10% heat-inactivated fetal bovine serum. Red blood cells were destroyed in a hemolysis buffer (consisting of 140 mM NH4Cl and 17 mM Tris-HCl, pH 7.2) for 10 minutes on ice, and the treated cells were pre-incubated in a 100 mm dish for 1 hour. The non-adherent cells (hematopoietic cells) were harvested and seeded at 50,000 cells per well in 96-well plates in the presence of 20 ng/ml of recombinant human M-CSF (R&D Systems) for 2 days. The cells proliferated in response to M-CSF were defined as BMMs. […]
Adherent cells were fixed in 10% formalin for 3 minutes, followed by further fixation in a fixative buffer consisting of 50% ethanol and 50% acetone for 1 minute. […] TRAP-positive cells with more than 3 or 10 nuclei were counted as multinucleated osteoclasts.
Wild-type and Dcir−/− BMMs were induced to differentiate osteoclasts in the presence of M-CSF and RANKL. […] The number of osteoclasts was determined by TRAP staining. […] Cell lysates were analyzed by western blotting to detect the phosphorylation levels of signal components. […]

wild-type BMMs [4] = experiment: Western blotting of M-CSF- and RANKL-mediated signals, wild-type BMMs; type: cell-based, mouse; conditions: wild-type BMMs pre-treated with NA2
Procedure: (§5) For western blotting of M-CSF- and RANKL-mediated signals, BMMs were re-plated in a 12-well plate at 250,000 cells per well in the presence of 5 ng/ml of M-CSF. 24 hours after the culture, the BMMs were left in a serum-free medium without M-CSF for 6 hours before stimulation. The cells were activated with 20 ng/ml of M-CSF or 100 ng/ml of RANKL for predetermined periods. […]
(§6) Wild-type and Dcir−/− BMMs were induced to differentiate osteoclasts in the presence of M-CSF and RANKL. […] The number of osteoclasts was determined by TRAP staining. […] Cell lysates were analyzed by western blotting to detect the phosphorylation levels of signal components.

Dcir−/− BMMs = experiment: Western blotting of M-CSF- and RANKL-mediated signals, Dcir−/− BMMs; type: cell-based, mouse; conditions: FIG. 49: Dcir−/− BMMs pre-treated with NA2 1 μg/ml for 6 hours
Procedure: as §5, §6

[5] = system: Flt3L-induced dendritic cells (DCs); experiment: Pro-inflammatory cytokine production by LPS-activated Flt3L-induced dendritic cells (ELISA); type: cell-based, mouse; conditions: 1 μg/ml NA2, 24 hours, versus without NA2
Procedure: Flt3L-induced dendritic cells (DCs) were prepared by the following process. Bone marrow cells were isolated from femurs of wild-type mice. Red blood cells were destroyed in a hemolysis buffer (consisting of 140 mM NH4Cl and 17 mM Tris-HCl, pH 7.2) for 10 minutes on ice. The cells were seeded at 1 million cells per well in 24-well plates in the presence of 100 ng/ml of recombinant human Flt3L in a medium containing 10% FBS, antibiotic mixtures, essential amino acids and 2-mercaptoethanol. At day 4, 100 ng/ml of recombinant human Flt3L (Milteny) was added in each well and further cultured for additional 4 days. At day 8, the cells were harvested and re-seeded at 500,000 cells per well in 96-well plates.
The DCs thus obtained were activated with agonistic reagents (LPS) with or without 1 μg/ml of a NA2 for 24 hours. The supernatants were collected and the amounts of pro-inflammatory cytokines (IL-6 and p40) were determined by ELISA. As a result, the amount of pro-inflammatory cytokines were smaller when the DCs were stimulated by LPS in the presence of a NA2 than without the same (FIG. 50). In FIG. 50, the left-side two bars represent the amounts of pro-inflammatory cytokines without LPS stimulation, and the right-side two bars represent the amounts of pro-inflammatory cytokines with LPS stimulation, where the black bars represent the cases in the presence of a NA2.

[6] = system: primary murine osteoblasts; experiment: Effect of IFN-γ on osteoblast formation (alizarin red staining, osteogenic gene expression); type: cell-based; conditions: exogenous addition, dose-dependent
Procedure: Calvarial cells were prepared by sequential digestion followed by a standard method. Briefly, calvavria from 1 to 2-day old neonates were surgically isolated and adherent mesenchymal tissues were trimmed. The neonatal calvaria underwent a first digestion with a degrading solution containing 0.1% collagenase (Wako Pure Chemical Industries) and 0.1% dispase (Roche Diagnostics Japan) for 10 minutes at 37° C. with agitation. The solution was discarded to remove debris, and the remaining calvaria were further digested by the same degrading solution for 1 hour at 37° C. The cells isolated from the serial digestions were suspended in an a-MEM containing 10% FCS, penicillin (100 units/ml) and streptomycin (100 μg/ml), and plated at the concentration of 200,000 cells/well in 12-well plates. Two days after the culture, the cells were incubated in an osteogenic medium (α-MEM supplemented with 10% FBS, 50 μg/ml ascorbic acid (Sigma-Aldrich), 10 mM β-glycerophosphate (Calbiochem) and antibiotics) for 14 days or 21 days, with the medium replaced every 3 days for the entire duration.
Murine osteoblasts were cultured and differentiated according to the protocol as mentioned above. […]
The mineralization formation of osteoblastic cells was detected by the von Kossa method and staining with alizarin red S (sodium alizarin sulphonate). […]

Row | Molecule | binding of DCIR-Fc to the glycan (DCIR-Fc [1]) | binding of mutant DCIR-Fc (CRD mutants) to the glycan (DCIR-Fc [2]) | Ca2+ and CRD dependency of DCIR-Fc binding (DCIR-Fc [2]) | osteoclast formation in wild-type BMMs (wild-type BMMs [3]) | Akt phosphorylation in response to M-CSF and RANKL (wild-type BMMs [4]) | MAPKs and IκBα upon M-CSF and RANKL stimuli (Dcir−/− BMMs) | amount of pro-inflammatory cytokine IL-6 [5] | amount of pro-inflammatory cytokine p40 [5] | alizarin red staining (ability of osteoblasts to mineralize) [6] | expression of osteogenic genes ([6]; day 14 culture)
1 | asialo-transferrin: glycoprotein probe on the glycan microarray; transferrin without sialic acid | bound | no binding | Ca^2+-dependent |  |  |  |  |  |  | 
2 | asialo-biantennary N-glycan [NA2] | bound strongly |  | Ca^2+ and CRD were required | significant decrease | decrease | no effect | smaller | smaller |  | 
3 | heparin | bound | remained bound | Ca^2+-dependent |  |  |  |  |  |  | 
4 | IFN-γ: recombinant murine IFN-γ (PeproTech) (protein, UniProt P01580 23-155, looked up) Interferon gamma: HGTVIESLESLNNYFNSSGIDVEEKSLFLDIWRNWQKDGDMKILQSQIISFYLRLFEVLKDNQAISNNISVIESHLITTFFSNSKAKKDAFMSIAKFEVNNPQVQRQAFNELIRVVHQLLPESSLRKRKRSRC |  |  |  |  |  |  |  |  | augmented | augmented

From patent US10792300B2, “Dendritic cell immune receptor activator, method for activating dendritic cell immune receptor, osteoclast formation inhibitor, method for inhibiting osteoclast formation, dendritic cell differentiation/proliferation inhibitor, method for inhibiting dendritic cell differentiation/proliferation, …” (TOKYO UNIVERSITY OF SCIENCE FOUNDATION, priority 2014, dated 2020)
